Data set [1] can be described thus: Plasma levels and bioavailability in rats. Conditions: male, Sprague Dawley, rat, in vivo, po, 10 mg/kg. Here is the method:
The plasma levels of a compound following a single intravenous and oral administration in carotid artery-cannulated male Sprague Dawley rats was determined. Plasma samples were collected and used to determine the plasma concentration of the compound and metabolites. In addition tissue samples, including whisker samples and PBMC cells were collected for telomerase activity analysis.
Carotid artery-cannulated male Sprague Dawley rats were divided into treatment groups according to Table 6. The rats were provided ad libitum SLAC-MO1 # YY080208 (Shanghai Laboratories Animal Center, Shanghai, China) throughout the in-life portion of the study with the exception of the overnight fasting period prior to oral dosing. Water was available ad libitum.
The compounds were dissolved in 2% EtOH/98% water to yield a final concentration of 2.5 mg/ml and 1 mg/ml for both intravenous and oral administration, respectively. The concentration of each compound was confirmed by HPLC analysis.
Body weights were taken on the day of dose administration. Dose volume was determined based on individual body weight taken on day of dosing.
Blood samples (approximately 250 μL) were collected via cannulae into tubes containing K2-EDTA anticoagulant and 1 mg/ml NaF at the various time points. Blood was stored on ice and then plasma separated via centrifugation (8000 rpm×6 minutes). The plasma was stored at […] until LC-MS/MS analysis.
Percentage of bioavailability was calculated.

The target in data set [2] is T1, telomerase (Homo sapiens, UniProt O14746). The experiment in a line: Keratinocyte cell/TRAP assay (HEKneo-P cells). Also on record: host or cells: HEKneo-P (pooled neonatal human epidermal keratinocytes). The data set is classed as cell-based. An excerpt:
Harley et al., U.S. Pat. […] Harley et al., U.S. Pat. […] Non-treatment control (NT) was also included. […]

On the set-up of data set [3]: species or system male Beagle dogs. Particulars: male, Beagle, dog, in vivo, po, 10 mg/kg. Here is the method: The plasma level of a compound following a single intravenous and oral administration in male Beagle dogs was determined. Plasma samples were collected and used to determine the plasma concentration of the compound and metabolites. In addition tissue samples, including whisker samples and PBMC cells were collected for telomerase activity analysis.
Male Beagle dogs were divided into treatment groups according to Table 5. The dogs were provided ad libitum SLAC-MO1 #W080701 (Shanghai Laboratories Animal Center, Shanghai, China) throughout the in-life portion of the study with the exception of the overnight fasting period prior to oral dosing. Water was available ad libitum.
The compounds were dissolved in 2% EtOH/98% water […] to yield a final concentration of 2.5 mg/ml and 1 mg/ml for both intravenous and oral administration, respectively. The concentration of each compound was confirmed by HPLC analysis.
Doses were administered intravenously via the left femoral vein and then by oral dosing one week later. Body weights were taken on the day of dose administration. Dose volume was determined based on individual body weight taken on day of dosing.
Blood samples (approximately 250 μL) were collected via right femoral vein into tubes containing K2-EDTA anticoagulant and 1 mg/ml NaF at appropriate time points. Blood was stored on ice and then plasma separated via centrifugation (8000 rpm×6 minutes). The plasma was stored at […] until LC-MS/MS analysis.

The target of data set [4] is T1, telomerase. The experiment in a line: Peripheral blood monocyte cell (PBMC)/TRAP assay. Also on record: host or cells: HEKneo-P (pooled neonatal human epidermal keratinocytes). It counts as cell-based. Particulars: 24 hours. An excerpt:
Cell lines suitable for use in the assay, normal human peripheral blood mononuclear cells (PBMCs) or Human Epidermal Keratinocytes (neonatal) (HEKs), can be obtained from commercial sources, such as Cascade Biologics, Portland, Oreg. or 4C Biotech, Seneffe, Belgium, or from the ATCC (American Type Culture Collection). ATCC normal human fibroblast cell lines, which can be located on the ATCC web site, include for example, CCL135, CCL137, and CCL151.
PBMC Isolation. Blood was collected in sodium heparin vacutainers and pooled into a single 50 mL polypropylene tube. Blood was diluted 1:1 with 1×PBS and mixed thoroughly by inversion. 25 mL of diluted blood was layered over 12 mL of Lympholyte-H (Cedarlane Laboratories) and centrifuged at room temperature for 20 min at 800 g. […]
Culture Conditions. The cells were counted using Trypan Blue exclusion and resuspended in complete media that is supplemented with 50 Units of hIL-2/mL so that final concentration of cells is 1×10^6/mL. […] At least once a week, cells are counted and media level is adjusted to keep cells around 5—10^5/mL. […]
Treatment with Analogs. After 10-14 days in culture, cells were counted and resuspended in conditioned media at a concentration of 1×10^6/mL. […]
TRAP Reaction and Gel. Samples were analyzed using a 1-step TRAP PCR reaction. […]

Read-outs that look alike come from different tables or passages of the source.

T1 sequence (O14746 whole entry): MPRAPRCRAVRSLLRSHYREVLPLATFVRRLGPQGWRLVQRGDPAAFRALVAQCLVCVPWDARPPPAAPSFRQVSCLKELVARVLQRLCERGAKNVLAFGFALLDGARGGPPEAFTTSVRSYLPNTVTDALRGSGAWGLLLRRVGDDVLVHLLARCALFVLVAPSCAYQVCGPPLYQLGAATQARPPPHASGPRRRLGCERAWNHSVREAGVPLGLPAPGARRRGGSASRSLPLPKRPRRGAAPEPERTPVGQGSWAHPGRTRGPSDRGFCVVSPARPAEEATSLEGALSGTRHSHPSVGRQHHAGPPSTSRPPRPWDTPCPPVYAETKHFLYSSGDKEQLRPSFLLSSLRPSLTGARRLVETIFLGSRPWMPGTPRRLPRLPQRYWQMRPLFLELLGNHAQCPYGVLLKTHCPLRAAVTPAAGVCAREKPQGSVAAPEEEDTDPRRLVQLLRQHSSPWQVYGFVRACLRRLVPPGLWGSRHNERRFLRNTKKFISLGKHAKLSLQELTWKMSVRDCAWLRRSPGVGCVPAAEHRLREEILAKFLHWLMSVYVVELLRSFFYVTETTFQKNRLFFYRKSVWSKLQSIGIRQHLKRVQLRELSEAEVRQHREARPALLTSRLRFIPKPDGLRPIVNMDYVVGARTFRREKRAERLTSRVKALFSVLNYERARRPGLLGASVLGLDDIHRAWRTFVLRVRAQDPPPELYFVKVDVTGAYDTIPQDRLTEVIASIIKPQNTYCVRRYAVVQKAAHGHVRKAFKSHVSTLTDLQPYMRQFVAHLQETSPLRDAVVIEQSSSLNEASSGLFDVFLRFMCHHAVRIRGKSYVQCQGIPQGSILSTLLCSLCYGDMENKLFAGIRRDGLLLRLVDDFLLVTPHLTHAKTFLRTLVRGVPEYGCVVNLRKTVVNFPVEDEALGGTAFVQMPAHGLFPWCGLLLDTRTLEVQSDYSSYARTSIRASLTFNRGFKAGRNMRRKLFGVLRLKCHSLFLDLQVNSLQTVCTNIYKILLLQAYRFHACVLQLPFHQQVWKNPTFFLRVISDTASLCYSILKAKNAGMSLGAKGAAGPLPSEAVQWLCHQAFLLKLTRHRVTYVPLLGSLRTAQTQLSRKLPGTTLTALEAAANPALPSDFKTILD

In the case of `CC(C)(O)[C@@H]1CC[C@](C)([C@H]2[C@@H](O)C[C@@]3(C)[C@@H]4C[C@H](O)[C@H]5C(C)(C)[C@@H](O)CC[C@@]56C[C@@]46CC[C@]23C)O1` [Compound 2, 17-[5-(1-Hydroxy-1-methyl-ethyl)-2-methyl-tetrahydro-furan-2-yl]-4,4,13,14-tetramethyl-tetradecahydro-cyclopropa[9,10]cyclopenta[a]phenanthrene-3β,6α,16β-triol, reference compound], the “Bioavailability % F” value in data set [1] was determined as 22.6%; in data set [3] it was 3%. The “Max fold increase of activity” value on telomerase [2] amounted to 3.3 fold. In addition, the “Activity in in vitro HEK assay” value on telomerase [2] (24 hr, 0.01 to 10 μM, vs vehicle control at peak of full dose curve) is recorded as “+ (telomerase activation is 2 fold or more in comparison with vehicle control at the peak of the full dose curve.)”. In addition, a half-maximal effect on telomerase [2] (telomerase activation) (EC50) was put at 0.03 µM. At telomerase [4], the “Fold increase at 1 μM” value was 1.6-20.7 fold.

For orientation: EC50 means the concentration that produces a half-maximal response.

The record behind these values is patent US9403866B2, “Compositions and methods for increasing telomerase activity” (Telomerase Activation Sciences, Inc., priority 2009, dated 2016).
